In EPA's ToxValDB 9.5:
≈ marks a conversion by molar mass, not a printed value. Where “and” joins values, the source holds several entries; their conditions need not be identical. Equal values may be shown once.

Experiments:
Rattus norvegicus [1] = test system: Rattus norvegicus
Rattus norvegicus [2] = conditions: for LD50 / NOAEL / LOAEL: oral
Oryctolagus sp. = conditions: acute, dermal
Rattus norvegicus [3] = conditions: oral
Mus musculus [4] = conditions: oral
Mus musculus [5] = conditions: oral; for LD50: acute
Rattus norvegicus [6] = conditions: subchronic, oral, gavage, Sprague-Dawley
Rattus norvegicus [7] = conditions: Hershberger; duration: 10 days; oral; gavage; Wistar; active + Negative + Antiandrogenic + anti-androgenic
[8] = reproduction developmental, oral, M/F, reduced fertility index and reduced body weight of dams
[9] = short-term, duration: 28 days, diet, Sprague-Dawley
[10] = reproduction developmental, oral, drinking water, F, reproductive effects
[11] = reproduction developmental, duration: 90 days, diet, F
[12] = reproduction developmental, duration: 90 days, diet, F, Fischer 344
[13] = reproduction developmental, duration: 90 days, diet, Fischer 344, generation: F1
[14] = reproduction developmental, duration: 90 days, diet, generation: F1
[15] = chronic, duration: 2 years, oral, diet, M/F, increased levels of serum proteins and increased liver weight
[16] = chronic, duration: 2 years, oral, diet, M/F, reduced body weight

Clc1cc(Cl)cc(C2(CC(Cl)(Cl)Cl)CO2)c1 (stereo unspecified) [Tridiphane]
LEL (Rattus norvegicus [1]; [8]): 1.67 mg/kg-day | NOEL (Rattus norvegicus [1]; [8]): 0.33 mg/kg-day

CC(C)CC(=O)CC(C)CC(C)C (stereo unspecified) [2,6,8-Trimethyl-4-nonanone]
LD50 (Rattus norvegicus [2]; acute, gavage): 8470 mg/kg | NOAEL (Rattus norvegicus [2]; reproduction developmental, gavage, CD, generation: F1): 300 mg/kg-day | NOAEL (Rattus norvegicus [2]; reproduction developmental, gavage, F, CD): 100 mg/kg-day | LD50 (Oryctolagus sp.; occlusive): 9030 mg/kg

Cc1ccc(N(C)C)cc1 [N,N,4-Trimethylaniline]
LC50 (Rattus norvegicus [2]; acute, inhalation, Sprague-Dawley): 1.4 µg/mL (≈ 10.4 µM) | LD50 (Rattus norvegicus [2]; acute, Sprague-Dawley): 1650 mg/kg | LD50 (Oryctolagus sp.; New Zealand): > 2000 mg/kg

CC(C)CCC(C)Nc1ccc(Nc2ccccc2)cc1 (stereo unspecified) [N-(5-Methyl-2-hexyl)-N'-phenyl-p-phenylenediamine]
LOAEL (Rattus norvegicus [2]; [9]): 750 ppm | NOAEL (Rattus norvegicus [2]; [9]): 500 ppm | LD50 (Oryctolagus sp.; occlusive, New Zealand): > 5010 mg/kg

Cc1ccc([N+](=O)[O-])cc1C [1,2-Dimethyl-4-nitrobenzene]
LD50 (Rattus norvegicus [2]; acute, Wistar): 2640 mg/kg | LD50 (Oryctolagus sp.; occlusive, New Zealand): > 5700 mg/kg

CCOP(=O)(OCC)OC(=CCl)c1ccc(Cl)cc1Cl [Chlorfenvinphos]
LOAEL (Rattus norvegicus [3]; chronic, duration: 104 weeks, diet, M/F, Wistar, neurological): 0.7 mg/kg-day | LOAEL (Rattus norvegicus [3]; short-term, duration: 10 days, diet, F, Wistar, neurological): 2.4 mg/kg-day | LOAEL (Mus musculus [4]; subchronic, duration: 3 months, M/F, C57BL/6, immunological): 1.5 mg/kg-day

COc1nc(NC(C)C)nc(NC(C)C)n1 [Prometon]
NOAEL (Rattus norvegicus [1]; subchronic, oral, diet, M/F, no effects): 15 mg/kg-day

Cl [Hydrochloric acid]
LOAEL (Rattus norvegicus [1]; chronic, inhalation, M, hyperplasia of nasal mucosa larynx and trachea): 15 mg/m3

Oc1ccccc1Cl [2-Chlorophenol]
NOAEL (Rattus norvegicus [3]; reproduction developmental, duration: 364 days, drinking water, M/F, Sprague-Dawley, reproductive): 7.6 mg/kg-day | LOAEL (Rattus norvegicus [1]; [10]): 50 mg/kg-day | NOAEL (Rattus norvegicus [1]; [10]): 5 mg/kg-day

CCCCCCCCOC(=O)c1ccccc1C(=O)OCCCCCCCC [Di-n-octyl phthalate]
LD50 (Rattus norvegicus [2]; acute): 53700 mg/kg | NOAEL (Rattus norvegicus [2]; reproduction developmental, duration: 13 weeks, diet, Sprague-Dawley): 38.8 mg/kg-day | LD50 (Mus musculus [5]): 13000 mg/kg | NOAEL (Mus musculus [5]; reproduction developmental, duration: 8 days, gavage, F, CD1): 9780 mg/kg-day | NOAEL (% diet) (Mus musculus [5]; reproduction developmental, CD1, generation: F0): 5 | NOAEL (% diet) (Mus musculus [5]; reproduction developmental, CD1, generation: F1): 5 | NOAEL (% diet) (Mus musculus [5]; reproduction developmental, CD1, generation: F2): 5 | LOAEL (Rattus norvegicus [3]; short-term, duration: 14 days, gavage, M, Sprague-Dawley, hepatic): 1000 mg/kg-day | NOAEL (Rattus norvegicus [3]; subchronic, duration: 13 weeks, diet, M/F, Sprague-Dawley, hepatic): 40.8 mg/kg-day

Nc1ccc(Oc2ccc(N)cc2)cc1 [4,4'-Oxydianiline]
LD50 (Rattus norvegicus [2]; acute, gavage): ≥ 675 mg/kg and ≤ 775 mg/kg | NOAEL (Rattus norvegicus [2]; developmental, gavage, Sprague-Dawley): 10 mg/kg-day | LOAEL (Rattus norvegicus [2]; [11]): 400 ppm | NOAEL (Rattus norvegicus [2]; [11]): 100 ppm | LOAEL (Rattus norvegicus [2]; [12]): 400 ppm | NOAEL (Rattus norvegicus [2]; [12]): 100 ppm | LOAEL (Rattus norvegicus [2]; [13]): 400 ppm | NOAEL (Rattus norvegicus [2]; [13]): 100 ppm | LOAEL (Rattus norvegicus [2]; [14]): 400 ppm | NOAEL (Rattus norvegicus [2]; [14]): 100 ppm | NOAEL (Rattus norvegicus [2]; reproduction developmental, gavage, F, Sprague-Dawley): 10 mg/kg-day | LD50 (Mus musculus [5]; gavage): ≥ 635 mg/kg and ≤ 735 mg/kg | NOEL (Rattus norvegicus [6]; M, Food Consumption: decrease + Hematology: RBC decrease, R Hgb decrease, R RET increase, R Hct decrease, MCHC decrease, R APTT decrease, WBC …): 3 mg/kg-day

CNNC [1,2-Dimethylhydrazine]
LOAEL (Mus musculus [4]; chronic, duration: 5 months, diet, M, hepatic): 0.75 mg/kg-day

CC(C)Oc1cc(-n2nc(C(C)(C)C)oc2=O)c(Cl)cc1Cl [Oxadiazon]
LEL (Rattus norvegicus [1]; [15]): 5 mg/kg-day | NOEL (Rattus norvegicus [1]; [15]): 0.5 mg/kg-day

CN(C)c1nc(=O)n(C2CCCCC2)c(=O)n1C [Hexazinone]
LEL (Rattus norvegicus [1]; [16]): 50 mg/kg-day | NOEL (Rattus norvegicus [1]; [16]): 10 mg/kg-day

CN(C)C(=O)Nc1cccc(C(F)(F)F)c1 [Fluometuron]
NOAEL (Rattus norvegicus [1]; chronic, duration: 103 weeks, oral, diet, M/F, no effects): 12.5 mg/kg-day

Cc1ccc2[nH]c3cc4c(=O)c5cc(C)ccc5[nH]c4cc3c(=O)c2c1 [C.I. Pigment Red 122]
LD50 (Rattus norvegicus [2]; acute, gavage): ≥ 5000 mg/kg | LD50 (Mus musculus [5]; gavage): ≥ 5000 mg/kg | NOEL (Rattus norvegicus [6]): 1000 mg/kg-day

Clc1ccc(C(c2ccc(Cl)cc2)C(Cl)Cl)cc1 [p,p'-DDD]
LOAEL (Mus musculus [4]; developmental, duration: 14 days, gavage, M, NMRI, developmental): 0.5 mg/kg-day | LOEL (Rattus norvegicus [7]): 200 mg/kg-day | NOEL (Rattus norvegicus [7]): 40 mg/kg-day
